Source: patent US4691046A, “Butanedioic acid mono [(2-dimethylamino] ethyl ester)succinate” (Institut Organicheskoi Khimii Ordena Lenina I Ordena …, priority 1986, dated 1987)

Experiments:
[1] = Survival of mice on acute cooling; type: in vivo
Procedure: The activity of the compound according to the present invention was studied in experiments on animals. The effectivemess of the compound according to the present invention was studied for resistance against an acute cold effect in comparison with conventional preparations such as butanedioic acid mono[(2-dimethylamino)ethyl ester] and sodium succinate.
The experiments were carried out on male mice (tetrahybdrids) with a body mass of 18-20 g which were placed into a cold chamber at a temperature of -15t to -17° C. in separate plastic cages slightly limiting their activity. […] The preparations were administered intraperiotoneally 1 hour before the cold effect the control animals were administered with a physiological solution.

Succinatedehydrogenase = test: Activity of succinatedehydrogenase in myocardium upon low-temperature treatment; type: in vivo, mice; conditions: 2.5 hours at -14° C.; 80 mg/kg (invention) or 64 mg/kg (ester); control 72.3 ± 1.6
Procedure: (§2) The preparations were administered one hour before the standard low-temperature treatment (-14° C.) in doses of 80 mg/kg of the compound according to the present invention and 64 mg/kg of the prior art compound-butanedioic acid mono[(2-dimethylamino)-ethyl ester].

Isocitratedehydrogenase = test: Activity of isocitratedehydrogenase in myocardium upon low-temperature treatment; type: in vivo, mice; conditions: 2.5 hours at -14° C.; 80 mg/kg (invention) or 64 mg/kg (ester); control 49.5 ± 1.2
Procedure: as §2

Glutamatedehydrogenase = test: Activity of glutamatedehydrogenase in myocardium upon low-temperature treatment; type: in vivo, mice; conditions: 2.5 hours at -14° C.; 80 mg/kg (invention) or 64 mg/kg (ester); control 68.8 ± 1.5
Procedure: as §2

Pyruvatedehydrogenase = test: Activity of pyruvatedehydrogenase in myocardium upon low-temperature treatment; type: in vivo, mice; conditions: 2.5 hours at -14° C.; 80 mg/kg (invention) or 64 mg/kg (ester); control 56.6 ± 1.1
Procedure: as §2

NADH2 --dehydrogenase = test: Activity of NADH2-dehydrogenase in myocardium upon low-temperature treatment; type: in vivo, mice; conditions: 2.5 hours at -14° C.; 80 mg/kg (invention) or 64 mg/kg (ester); control 69.8 ± 1.5
Procedure: as §2

[2] = tested on: NAD-Ph--H2 --dehydrogenase; test: Activity of NAD-Ph-H2-dehydrogenase in myocardium upon low-temperature treatment; type: in vivo, mice; conditions: 2.5 hours at -14° C.; 80 mg/kg (invention) or 64 mg/kg (ester); control 72.1 ± 1.4
Procedure: as §2

[3] = tested on: Glucose-6-phosphatedehydrogenase; test: Activity of glucose-6-phosphatedehydrogenase in myocardium upon low-temperature treatment; type: in vivo, mice; conditions: 2.5 hours at -14° C.; 80 mg/kg (invention) or 64 mg/kg (ester); control 57.3 ± 1.3
Procedure: as §2

[4] = Maximum duration of mice lifespan upon testing cold treatment (Le Blanc adaptation procedure); type: in vivo
Procedure: (§1) To elucidate the effect of the compound according to the present invention on the adaptation phenomenon, experiments on male mice with a body mass of 18-20 g were carried out in conformity with the Le Blanc procedure according to which the mice were placed into a cold chamber (at -17° C.) for 10 minutes ever hour over the period of 9-10 hours. After one day the maximum lifespan of the mice at -17° C. was assessed along with the content of glucose in blood and of glycogen in organs upon a predetermined cold treatment (2.5 hours a -14° C.). The compound according to the present invention and butanedioic acid mono[(2-dimethylamino)-ethyl ester] (in doses of 80 and 64 mg/kg respectively) were introduced immediately after a series of short-time cold effects. In a number of experiments the compound according to the present invention was administered 1 hour prior to the testing (2.5 h) cold effect.

[5] = Blood glucose and organ glycogen upon predetermined (2.5 h) cold treatment (adaptation experiment); type: in vivo, mice; conditions: 2.5 h at -14° C.; for Glycogen, heart: control 1.7 ± 0.2; for Glycogen, liver: control 6.7 ± 0.4; for Blood glucose: control 37 ± 6
Procedure: as §1

[6] = Stresso-protective activity, motion stress in slowly rotating drum for 48 hours; type: in vivo, rats; conditions: 48 h motion stress
Procedure: In evaluation of the stresso-protective activity of the compound according to the present invention as a model use was made of a procedure of depriving rats of sleep, meals and water in a slowly rotating drum (at the speed of 0.2 km/h).
The experiments were carried out on 42 nondescript male rats. In parallel experiments the antistress activity of butanedioic acid mono[(2-dimethylamino)ethyl ester] was studied; as the reference prepartion use was made of the prior art tranquilizer--diazepam which was used in the experiments for this very indication.
4 groups of animals were tested in parallel. Groups I and II were placed for 48 hours into a slowly rotating drum, groups III and IV were under normal conditions and were deprived only of meals and water. The compound according to the present invention and butanedioic acid mono[(2-dimethylamino)ethyl ester] were administered intraperitoneally in the dose of 10 mg/kg four times (2 times a day) in the volume of 2.5 ml/kg under the conditions of motion stress (Group I of the animals) and under normal conditions (Group III of animals). The control animals--Group II (active control) and Group IV (passive control) were given a physiological solution. The efficiency of the compound according to the present invention, of butanedioic acid mono[(2-dimethylamino)ethyl ester] and of diazepam was estimated on the basis of a set of characteristics showing the functional activity of the central nervous system, physical fitness and development of basic symptoms of the stress-syndrome.
The residence of control rats in a slowly-rotating drum over 48 hours results in a noticeable deterioration of all the studied characteristics, especially those of higher nervous activity (learning) and development of stress-syndrome. The state of control animals was characterized by lowering of the overall behavioural activity as determined by the "open-field" test (37±15%) with reference to the passive control level, by a reduction in the speed of development of a conventional avoiding response in an aqueous labyrinth (58±15%), by an increase in the number of mistakes during the teaching time (175±25%), lowering of the ultimate physical endurance as determined by the swimming-with-load test (the load is equal to 10% by mass of the body (70±17%), adrenal hypertrophy (146±16%), thymus atrophy (49±9%) and formation of ulcers on the stomach mucous membrane (5.25±1.0%).

[7] = Biochemical substrates in mice upon preset (2.5 hours) low-temperature treatment; conditions: 2.5 hours at -14° C.
Procedure: as §2

[8] = adaptation + preparation 1 hour before the testing effect
[9] = adaptation + preparation immediately after adaptation, 80 mg/kg (invention) or 64 mg/kg (ester)

In the case of `CN(C)CCOC(=O)CCC(=O)O` [Compound of this invention, butanedioic acid mono[(2-dimethylamino)ethyl ester]succinate], the “Survival, %, 1 hour” value ([1]; 1 hour of cold at -15 to -17° C., i.p. 1 hour before, 80 mg/kg (invention), 64 mg/kg (ester), 17 mg/kg (sodium succinate)) is reported as 100%, the “Survival, %, 2 hours” value ([1]; 2 hours of cold at -15 to -17° C., i.p. 1 hour before, 80 mg/kg (invention), 64 mg/kg (ester), 17 mg/kg (sodium succinate)) is reported as 100% and the “Survival, %, 3 hours” value ([1]; 3 hours of cold at -15 to -17° C., i.p. 1 hour before, 80 mg/kg (invention), 64 mg/kg (ester), 17 mg/kg (sodium succinate)) is reported as 100%. The “Survival, %, 4 hours” value ([1]; 4 hours of cold at -15 to -17° C., i.p. 1 hour before, 80 mg/kg (invention), 64 mg/kg (ester), 17 mg/kg (sodium succinate)) was 90%, the “Survival, %, 5 hours” value ([1]; 5 hours of cold at -15 to -17° C., i.p. 1 hour before, 80 mg/kg (invention), 64 mg/kg (ester), 17 mg/kg (sodium succinate)) was 70% and the “Survival, %, 6 hours” value ([1]; 6 hours of cold at -15 to -17° C., i.p. 1 hour before, 80 mg/kg (invention), 64 mg/kg (ester), 17 mg/kg (sodium succinate)) was 70%. The “protective effect on survival at high dose” value ([1]; doses above 300 mg/kg) was “less pronounced”, the “Activity of succinatedehydrogenase in myocardium” value (Succinatedehydrogenase) was 90.2 ± 1.8 relative units and the “Activity of isocitratedehydrogenase in myocardium” value (Isocitratedehydrogenase) was 60.4 ± 1.6 relative units. The “Activity of glutamatedehydrogenase in myocardium” value (Glutamatedehydrogenase) was 78.3 ± 1.7 relative units, the “Activity of pyruvatedehydrogenase in myocardium” value (Pyruvatedehydrogenase) was 68.9 ± 1.3 relative units and the “Activity of NADH2-dehydrogenase in myocardium” value (NADH2 --dehydrogenase) was 73.4 ± 2.0 relative units. For the same compound, the “Activity of NAD-Ph-H2-dehydrogenase in myocardium” value [2] was 85.9 ± 1.7 relative units, the “Activity of glucose-6-phosphatedehydrogenase in myocardium” value [3] was 67.4 ± 1.5 relative units and the “Lifespan in hours (at -17° C.), preparation without adaptation” value ([4]; no adaptation, intact animals 3.4 ± 0.4) was 7.8 ± 0.3 h. For the same compound, the “Lifespan in hours (at -17° C.), preliminary adaptation + preparation” value ([4]; with preliminary adaptation, 80 mg/kg (invention) or 64 mg/kg (ester), adaptation alone 6.0 ± 0.3, listed as compound of the present invention) was 10.3 ± 0.6 h, the “Glycogen, heart” value [5, 8] was 2.6 ± 0.4 mg/g and the “Glycogen, liver” value [5, 8] was 11.7 ± 2.4 mg/g. For the same compound, the Blood glucose [5, 8] was 78 ± 6 mg. %, the “Glycogen, heart” value [5, 9] was 2.9 ± 0.2 mg/g and the “Glycogen, liver” value [5, 9] was 18.2 ± 2.1 mg/g. For the same compound, the Blood glucose [5, 9] was 88 ± 2 mg. %, the “formation of ulcers on the stomach mucous membrane” value [6] was 4.8±1.5% and the “general behavioural activity compared with diazepam” value ([6]; in words) was “substantially higher general behavioural activity”. For the same compound, the “Weight coefficient of thymus” value ([6]; 10 mg/kg i.p. four times (invention, ester), control 0.95 ± 0.18, listed as compound of the present invention, 10 mg/kg) was 1.25 g/kg of the initial body mass, the “Weight coefficient of adrenal glands” value ([6]; 10 mg/kg i.p. four times (invention, ester), control 1.246 ± 0.028, listed as compound of the present invention, 10 mg/kg) was 1.83 g/kg of the initial body mass and the “Number of attempts till reaching the learning criterion (water labyrinth)” value ([6]; 10 mg/kg i.p. four times (invention, ester), control 4.75 ± 0.5, listed as compound of the present invention, 10 mg/kg) was 2.75. The “Number of ulcers on the stomach mucous membrane” value ([6]; 10 mg/kg i.p. four times (invention, ester), control 5.25 ± 1.0, listed as compound of the present invention, 10 mg/kg) was 2.5, the Duration of swimming ([6]; 10 mg/kg i.p. four times (invention, ester), control 244 ± 26, listed as compound of the present invention, 10 mg/kg) was 499 s and the total behavioural activity ([6]; open-field test, stressed control 37±15% of passive control) was 85±10%. The “higher nervous activity (protection)” value ([6]; stressed control 58±15% (avoiding response, aqueous labyrinth)) was 100±9%, the physical endurance ([6]; swimming-with-load test, stressed control 70±17%) was 143±28% and the Liver glycogen ([7]; 1 hour after 80 mg/kg (invention) or 64 mg/kg (ester), control 8.1 ± 0.6, intact 35.2 ± 4.5) was 9.8 ± 1.2 mg/kg. The Blood glucose ([7]; 1 hour after 80 mg/kg (invention) or 64 mg/kg (ester), control 42 ± 4, intact 79 ± 3) was 80 ± 4 mg. %, the Creatine phosphate ([7]; myocardium, 1 hour after 80 mg/kg (invention) or 64 mg/kg (ester), control 1.2 ± 0.08, intact 3.7 ± 0.3) was 2.3 ± 0.1 μm/g and the Adenosine monophosphate ([7]; myocardium, 1 hour after 80 mg/kg, control 0.45 ± 0.01, intact 0.51 ± 0.03) was 0.32 ± 0.02 μm/g. It also gave an Adenosine diphosphate ([7]; myocardium, 1 hour after 80 mg/kg, control 0.49 ± 0.02, intact 0.78 ± 0.03) of 0.86 ± 0.04 μm/g and an Adenosine triphosphoric acid ([7]; myocardium, 1 hour after 80 mg/kg, control 1.5 ± 0.1, intact 2.2 ± 0.3) of 1.9 ± 0.2 μm/g.
